Numbered stars: 1 amine (or outer) side, 2 acyl side, 3 side chain; on linkers, the order of the positions; unused ones are H or OH. Square brackets hold non-standard residues; d marks the D form. Peptide text beside a SMILES is read from it. * marks the point of attachment. Sta = CC(C)C[C@H](N)[C@@H](O)CC(=O)O; pNA = O=[N+]([O-])c1ccc(N*)cc1; Suc = O=C(CCC(=O)[*:2])[*:1]; Isovaleryl = CC(C)CC(=O)*; Cbz = O=C(OCc1ccccc1)*; CK = not defined here
Test system: Nicotianalisin
Experiment: In situ Zymogram gelatin gel assay of partially purified protease
Type: biochemical, N. benthamiana
Conditions: 2 mM PMSF for 1 hr at 24° C.; partially purified fraction
Experimental: FIG. 2 depicts the inhibition of Nicotianalisin by PMSF protease inhibitor using Zymogram gelatin gel analysis. Plant extracts containing Nicotianalisin activity were partially purified by ion-exchange chromatography at pH 5.2, and fractions with peak protease activity were treated with or without 2 mM PMSF for 1 hr at 24° C. Following treatment, aliquots were removed and inhibitory activity assessed on Zymogram gels.
The in situ protease gel assay was carried out in pre-cast 10% Zymogram gels (Invitrogen, Carlsbad, Calif.) as per manufacturer's protocols.
Following the initial observation that the plant protease activity was inhibited by both chymostatin and potato PI-I (FIG. 1), experiments were initiated to partially purify the protease from N. benthamiana leaves. Plants were grown and IF extracts were prepared as described above. The IF was filtered through a 0.8μ Sartorius GF membrane to remove most of the Ribulose-1,5-bisphosphate carboxylase/oxygenase (Rubisco) and green pigments. The diafiltered extract was separated further by SP sepharose (Pharmacia) ion exchange chromatography at pH 5.2.

Compound | reduction of protease activity on Zymogram gelatin gel
O=S(=O)(F)Cc1ccccc1 [PMSF, phenylmethanesulfonyl fluoride] | significant reduction of protease activity

Test system: Nicotianalisin
Experiment: Hydrolysis of synthetic 4-nitroanilide peptide substrates by purified protease
Conditions: not given

Compound | preferential cleavage of synthetic peptide substrates
N-Succinyl-Alanine-Alanine-Proline-Phenylalanine-para-nitroanilide [N-Suc-AAPF-pNA] | preferentially cleaved
N-Succinyl-Alanine-Alanine-Proline-Leucine-para-nitroanilide [N-Suc-AAPL-pNA] | preferentially cleaved
N-Suc-AAPM-pNA: synthetic 4-nitroanilide peptide substrate (SMILES CSCC[C@H](NC(=O)[C@@H]1CCCN1C(=O)[C@H](C)NC(=O)[C@H](C)NC(=O)CCC(=O)O)C(=O)Nc1ccc([N+](=O)[O-])cc1) | preferentially cleaved

Test system: plant protease
Experiment: In vitro stability of recombinant hGH in IF with protease inhibitors (Western)
Type: biochemical, N. benthamiana
Conditions: 24 hours at 24° C. followed by 120 hours at 5° C.; anti-hGH Western
Experimental: FIG. 1 depicts the in vitro stability of expressed recombinant human growth hormone protein (hereafter “hGH”) in the interstitial fluid (hereafter “IF”) following the addition of protease inhibitors. Recombinant hGH protein was expressed in N. benthamiana using a tobacco mosaic virus (hereafter “TMV”) vector expression system. IF was prepared from plant leaves at 9 days post-inoculation and incubated for 24 hours at 24° C. followed by 120 hours at 5° C. with or without the addition of protease inhibitors. Fifteen microliters of the IF extract was separated by SDS-PAGE and the gel prepared for Western analysis. The levels of hGH protein in the IF of the time zero control (lane a), in absence of inhibitor (lane b), and in the presence of protease inhibitors chymostatin (lane c) and PI-I (lane d), were detected using anti-hGH antibody.
When a plant viral vector expression system (Kumagai et al., 1995; McCormick et al., 1999) was utilized to express the secreted, mammalian recombinant protein, hGH, significant degradation of the target protein was observed. […]
Aliquots of the plant IF fraction were separated by SDS-PAGE and levels of hGH protein were detected by immunoblot analysis using anti-hGH polyclonal antibody (Sigma, St. Louis, Mo.). […]
At zero time, prior to the addition of any inhibitors, both full length and hGH cleavage products were detected (FIG. 1). […]

Compound | inhibition of degradation of hGH protein in IF extract
CC(C)C[C@H](NC(=O)[C@@H](NC(=O)N[C@@H](Cc1ccccc1)C(=O)O)[C@@H]1CCN=C(N)N1)C(=O)N[C@H](C=O)Cc1ccccc1 [Chymostatin] | inhibition of further degradation of the intact hGH protein was observed

Test system: Nicotianalisin
Experiment: Protease inhibitor study in plant interstitial fluid (IF), N-Suc-AAPL-p-NA hydrolysis
Type: biochemical, N. benthamiana
Conditions: not given
Experimental: To further classify the protease activity in the plant IF extract, protease inhibitor studies were performed. Standard inhibitors from different classes of proteases were used. An aliquot of the plant IF was incubated with each inhibitor for 30 min at 24° C., and the free enzyme was incubated under the same conditions without the inhibitor to serve as the control. The protease activity after the inhibition was measured and compared to the control.
To further characterize the plant proteolytic activity, experiments were initiated to partially purify the plant protease. In order to purify the protease, enzyme assays were developed and utilized. Proteolytic activity was monitored by the hydrolysis of a synthetic substrate, hydrolysis of a protein substrate and/or by an in situ gel procedure. […] The absorbance of the p-nitroaniline (p-NA) produced was measured at 410 nm (Erlanger, Kokowsky, and Cohen, 1961; Nakajima et al., 1979). The activity unit was defined as the amount of the enzyme capable of producing 1 nanomole of p-NA per min under the conditions of the experiment with an absorption coefficient of […] (Erlanger, Kokowsky, and Cohen, 1961; Nakajima et al., 1979). The rate of hydrolysis of N-Succinyl-Ala-Ala-Pro-Phe-thiobenzylester SEQ ID NO: in 10% DMSO and 4,4′-dithiodipyridine was monitored at […] using an extinction coefficient of 19800 cm^−1 M^−1 (Barrett and Kirschke, 1981). General proteolytic activity was measured with 2.0% azocasein or 2.0% azoalbumin and Fluorescein Isothiocyanate Casein (FITC-casein; (Twining, 1984)). The reaction was started by addition of 10 μl of protease solution to 70 μl of reaction mixture (100 mM buffer Tris-HCl pH 7.0 containing 0.04% FTC-casein, 0.5 mM DDT, 2 mM CaCl2) and incubation for 1 hr at 37° C. The reaction was stopped by addition of 80 μl of 10% TCA and incubation for 15 min at −20° C. The mixture was centrifuged for 10 min at 10,000×g at 4° C. 10 μl of the supernatant solution was added to 150 μl Tris-HCl (0.5 M, pH 8.5), and fluorescence was measured at an excitation wavelength of 490 nm and an emission wavelength of 525 nm using a fluorescence plate reader ((Erlanger, Kokowsky, and Cohen, 1961; Nakajima et al., 1979), Molecular Devices).

Compound | % Inhibition [%]
Cc1ccc(S(=O)(=O)N[C@@H](CCCCN)C(=O)CCl)cc1 [TLCK] | 0

Same assay, conditions: IF from viral vector-infected plants incubated with inhibitor 30 min at 24° C.; 0.3 mM N-Suc-AAPL-p-NA

Compound | % Inhibition [%]
CC(C)CC(=O)N[C@H](C(=O)N[C@H](C(=O)N[C@@H](CC(C)C)[C@@H](O)CC(=O)N[C@@H](C)C(=O)N[C@@H](CC(C)C)[C@@H](O)CC(=O)O)C(C)C)C(C)C [Pepstatin A] (Isovaleryl-VV[Sta]A[Sta]-OH) | 6
CC(C)C[C@H](NC(=O)[C@H]1O[C@@H]1C(=O)O)C(=O)NCCCCN=C(N)N [E-64] | 5
O=C(O)CN(CCN(CC(=O)O)CC(=O)O)CC(=O)O [EDTA] | 5
CC(C)C[C@H](NC(=O)N[C@H](C(=O)N[C@@H](CCC(N)=O)C(=O)N[C@@H](C)C=O)[C@@H]1CCNC(=N)N1)C(=O)O [Elastinal] | 41
O=c1oc(Cl)c(Cl)c2ccccc12 [3-4 DCI] | 100
O=S(=O)(F)Cc1ccccc1 [PMSF, phenylmethanesulfonyl fluoride] | 100
Aprotinin | 46
N-CBZ-GGF-CK: irreversible serine protease inhibitor, active site titrant (Cbz-Gly-Gly-Phe-{CK}; reading uncertain; also: printed as N-CBZ-GGF-CK) | 70
Cc1ccc(S(=O)(=O)N[C@@H](Cc2ccccc2)C(=O)CCl)cc1 [TPCK] | 38
CC(=O)N[C@@H](CC(C)C)C(=O)N[C@@H](CC(C)C)C(=O)N[C@H](C=O)CCCNC(=N)N [Leupeptin] | 18
c1cnc2c(c1)ccc1cccnc12 [1-10 Phenantrolin] | 11
CC(C)C[C@@H](N)[C@H](O)C(=O)N[C@H](C(=O)N[C@H](C(=O)N[C@@H](CC(=O)O)C(=O)O)C(C)C)C(C)C [Amastatin] | 5
CC(C)C[C@H](NC(=O)[C@@H](NC(=O)N[C@@H](Cc1ccccc1)C(=O)O)[C@@H]1CCN=C(N)N1)C(=O)N[C@H](C=O)Cc1ccccc1 [Chymostatin] | 100

Test system: CD34+
Experiment: CD34+ proliferation assays
Type: cell-based
Conditions: proteins purified from plants
Experimental: The vectors were used to inoculate plant leaves of different sets of plants as described in the examples above. Both plant homogenates and interstitial fluid were extracted as described above. hSCF and pSCF were each purified from 27 plants to yield 0.85 mg (˜15 mg/kg) and 2.5 mg (˜45 mg/kg) of protein respectively.

Compound | biological activity in CD34+ proliferation assays
hSCF: human Stem Cell growth Factor expressed in plants from GENEWARE vector | biologically active

From patent US20040106198A1, “Inhibition of peptide cleavage in plants” (LARGE SCALE BIOLOGY CORPORATION, priority 2002, published 2004)
